According to PubChem BioAssay AID282 (DTP/NCI, 2004):
Where “and” joins values, the source holds several entries; their conditions need not be identical. Equal values may be shown once. Toxic doses and inconclusive results are not listed.

Tested on: BDF1 mice, L1210 terephthalanilide-resistant leukemia ip, survival T/C
Experiment: NCI In Vivo Anticancer Drug Screen. Data for tumor model L1210 Leukemia resistant to A Terephthalanilide; NSC 38280 (intraperitoneal) in B6D2F1 (BDF1) mice
Settings: endpoint: mean survival time, higher = longer survival
Method: The antitumor activity of compounds was measured in mice bearing transplantable tumors. Survival or tumor size were measured and the results are expressed as the measurement made in the treated group (T) divided by the measurement made in the vehicle treated control group (C). The tumor model used in this assay is L1210 Leukemia resistant to A Terephthalanilide; NSC 38280 (intraperitoneal) in B6D2F1 (BDF1) mice

[1] = dose: 50.0 mg/kg/injection, schedule: Q01DX010 (ip), vehicle: saline
[2] = dose: 37.5 mg/kg/injection, schedule: Q01DX Z (ip), vehicle: carboxymethylcellulose (CMC)
[3] = dose: 50.0 mg/kg/injection, schedule: Q01DX Z (ip), vehicle: carboxymethylcellulose (CMC)
[4] = dose: 6.25 mg/kg/injection, schedule: Q01DX010 (ip), vehicle: saline
[5] = dose: 12.5 mg/kg/injection, schedule: Q01DX010 (ip), vehicle: saline
[6] = dose: 25.0 mg/kg/injection, schedule: Q01DX010 (ip), vehicle: saline

NC(Cc1c[nH]c2ccc(N(CCCl)CCCl)cc12)C(=O)O (stereo unspecified)
T/C (dose: 0.5 mg/kg/injection, schedule: Q01DX010 (ip), vehicle: saline): 117 % of control | T/C (dose: 1.0 mg/kg/injection, schedule: Q01DX010 (ip), vehicle: saline): 108 % of control | T/C (dose: 2.0 mg/kg/injection, schedule: Q01DX010 (ip), vehicle: saline): 120 % of control | T/C (dose: 4.0 mg/kg/injection, schedule: Q01DX010 (ip), vehicle: saline): 233 % of control

C[C@@H]1C[C@H]2CC[C@H](O2)[C@H](C)C(=O)O[C@@H](C)C[C@@H]2CC[C@@H](O2)[C@@H](C)C(=O)O[C@H](C)C[C@H]2CC[C@H](O2)[C@H](C)C(=O)O[C@@H](C)C[C@@H]2CC[C@@H](O2)[C@@H](C)C(=O)O1
T/C (dose: 45.0 mg/kg/injection, schedule: Q01DX Z (ip), vehicle: carboxymethylcellulose (CMC)): 92 % of control | T/C (dose: 90.0 mg/kg/injection, schedule: Q01DX Z (ip), vehicle: carboxymethylcellulose (CMC)): 95 % of control | T/C (dose: 180.0 mg/kg/injection, schedule: Q01DX Z (ip), vehicle: carboxymethylcellulose (CMC)): 104 % of control | T/C (dose: 360.0 mg/kg/injection, schedule: Q01DX Z (ip), vehicle: carboxymethylcellulose (CMC)): 108 % of control

N=C(N)c1ccc(Nc2ccc(C(=N)N)cc2)cc1
T/C (dose: 3.0 mg/kg/injection, schedule: Q01DX010 (ip), vehicle: saline): 94 % of control | T/C (dose: 6.0 mg/kg/injection, schedule: Q01DX010 (ip), vehicle: saline): 91 % of control | T/C (dose: 7.5 mg/kg/injection, schedule: Q01DX Z (ip), vehicle: water): 95 % of control | T/C (dose: 10.0 mg/kg/injection, schedule: Q01DX Z (ip), vehicle: water): 95 % of control | T/C (dose: 12.0 mg/kg/injection, schedule: Q01DX010 (ip), vehicle: saline): 95 % of control | T/C (dose: 15.0 mg/kg/injection, schedule: Q01DX Z (ip), vehicle: water): 95 % of control | T/C (dose: 20.0 mg/kg/injection, schedule: Q01DX Z (ip), vehicle: water): 103 % of control

C#CCN(C)Cc1ccccc1
T/C [1]: 91 % of control | T/C (dose: 100.0 mg/kg/injection, schedule: Q01DX010 (ip), vehicle: saline): 102 % of control | T/C (dose: 200.0 mg/kg/injection, schedule: Q01DX010 (ip), vehicle: saline): 93 % of control

CSCS(=O)C[C@H](CO)NC(=O)/C=C/c1c(C)[nH]c(=O)[nH]c1=O (stereo partly specified)
T/C (dose: 62.5 micrograms/kg/injection, schedule: Q01DX010 (ip), vehicle: saline): 100 % of control | T/C (dose: 125.0 micrograms/kg/injection, schedule: Q01DX010 (ip), vehicle: saline): 100 % of control | T/C (dose: 250.0 micrograms/kg/injection, schedule: Q01DX010 (ip), vehicle: saline): 102 % of control | T/C (dose: 500.0 micrograms/kg/injection, schedule: Q01DX010 (ip), vehicle: saline): 102 % of control

O=c1[nH]c(=O)n(C2CC(O)C(CO)O2)cc1I (stereo unspecified)
T/C (dose: 500.0 mg/kg/injection, schedule: Q01DX Z (ip), vehicle: carboxymethylcellulose (CMC)): 151 % of control

Cn1c(N)nc2nc[nH]c2c1=S
T/C (dose: 10.0 mg/kg/injection, schedule: Q01DX010 (ip), vehicle: saline): 103 % of control | T/C (dose: 16.0 mg/kg/injection, schedule: Q01DX Z (ip), vehicle: carboxymethylcellulose (CMC)): 111 % of control | T/C (dose: 20.0 mg/kg/injection, schedule: Q01DX010 (ip), vehicle: saline): 93 % of control | T/C (dose: 31.0 mg/kg/injection, schedule: Q01DX Z (ip), vehicle: carboxymethylcellulose (CMC)): 120 % of control | T/C [2]: 150 % of control | T/C (dose: 40.0 mg/kg/injection, schedule: Q01DX010 (ip), vehicle: saline): 99 % of control | T/C [3]: 154 % of control | T/C (dose: 75.0 mg/kg/injection, schedule: Q01DX Z (ip), vehicle: carboxymethylcellulose (CMC)): 119 % of control | T/C (dose: 80.0 mg/kg/injection, schedule: Q01DX010 (ip), vehicle: saline): 100 % of control | T/C (dose: 150.0 mg/kg/injection, schedule: Q01DX Z (ip), vehicle: carboxymethylcellulose (CMC)): 150 % of control

O=C1C(NC(=O)C2CCCCC2)=C(N2CC2)C(=O)C(NC(=O)C2CCCCC2)=C1N1CC1
T/C [4]: 98 % of control | T/C [5]: 98 % of control | T/C (dose: 18.0 mg/kg/injection, schedule: Q01DX Z (ip), vehicle: carboxymethylcellulose (CMC)): 108 % of control | T/C [6]: 93 % of control and 98 % of control | T/C (dose: 25.0 mg/kg/injection, schedule: Q01DX Z (ip), vehicle: carboxymethylcellulose (CMC)): 97 % of control | T/C [2]: 91 % of control | T/C [1]: 90 % of control and 102 % of control | T/C [3]: 100 % of control | T/C (dose: 125.0 mg/kg/injection, schedule: Q01DX Z (ip), vehicle: carboxymethylcellulose (CMC)): 121 % of control | T/C (dose: 250.0 mg/kg/injection, schedule: Q01DX Z (ip), vehicle: carboxymethylcellulose (CMC)): 122 % of control

O=NN(CCCl)C(=O)NCCCl
T/C [4]: 224 % of control | T/C [5]: 105 % of control | T/C [6]: 89 % of control
